Measured values: the supplement of paper PMC12076712

Tests used:
Assay in all cases: pIC50, kinobeads binding competition
[1] = molecular target: FRK (UniProt P42685); details: cell material: Lysate mix
Outline: (§1)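 pIC50 was obtained by fitting fold changes against vehicle to logistic dose-response curves with the R drc package, using biological duplicates. Kinobeads-bound proteins were digested and measured by TMT10 LC-MS/MS. Before this, either living Jurkat cells received nine compound concentrations (top 30 μM, 1:4 steps) for 60 min at 37 °C prior to lysis, or Jurkat lysate or a 1:1:1:1 HEK293/K-562/HepG2/placenta lysate mix received nine concentrations (top 30 μM, 1:5 steps) for 60 min at 4 °C.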

[2] = molecular target: T1, ILK (UniProt Q13418)
T1 sequence (whole entry): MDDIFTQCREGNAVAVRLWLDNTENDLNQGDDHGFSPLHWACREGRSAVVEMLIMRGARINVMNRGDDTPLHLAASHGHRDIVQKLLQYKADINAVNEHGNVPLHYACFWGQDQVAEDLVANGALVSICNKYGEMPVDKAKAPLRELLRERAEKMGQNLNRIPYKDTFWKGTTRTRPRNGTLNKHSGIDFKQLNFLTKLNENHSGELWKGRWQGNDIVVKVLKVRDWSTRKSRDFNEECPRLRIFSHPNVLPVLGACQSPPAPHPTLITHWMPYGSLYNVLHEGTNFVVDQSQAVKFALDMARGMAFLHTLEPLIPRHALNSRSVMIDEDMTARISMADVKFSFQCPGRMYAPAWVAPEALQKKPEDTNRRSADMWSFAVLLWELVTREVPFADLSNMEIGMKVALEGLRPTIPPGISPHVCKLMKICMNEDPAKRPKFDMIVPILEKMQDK
Outline: as §1

[3] = molecular target: T2, KSR1 (UniProt Q8IVT5)
T2 sequence (whole entry): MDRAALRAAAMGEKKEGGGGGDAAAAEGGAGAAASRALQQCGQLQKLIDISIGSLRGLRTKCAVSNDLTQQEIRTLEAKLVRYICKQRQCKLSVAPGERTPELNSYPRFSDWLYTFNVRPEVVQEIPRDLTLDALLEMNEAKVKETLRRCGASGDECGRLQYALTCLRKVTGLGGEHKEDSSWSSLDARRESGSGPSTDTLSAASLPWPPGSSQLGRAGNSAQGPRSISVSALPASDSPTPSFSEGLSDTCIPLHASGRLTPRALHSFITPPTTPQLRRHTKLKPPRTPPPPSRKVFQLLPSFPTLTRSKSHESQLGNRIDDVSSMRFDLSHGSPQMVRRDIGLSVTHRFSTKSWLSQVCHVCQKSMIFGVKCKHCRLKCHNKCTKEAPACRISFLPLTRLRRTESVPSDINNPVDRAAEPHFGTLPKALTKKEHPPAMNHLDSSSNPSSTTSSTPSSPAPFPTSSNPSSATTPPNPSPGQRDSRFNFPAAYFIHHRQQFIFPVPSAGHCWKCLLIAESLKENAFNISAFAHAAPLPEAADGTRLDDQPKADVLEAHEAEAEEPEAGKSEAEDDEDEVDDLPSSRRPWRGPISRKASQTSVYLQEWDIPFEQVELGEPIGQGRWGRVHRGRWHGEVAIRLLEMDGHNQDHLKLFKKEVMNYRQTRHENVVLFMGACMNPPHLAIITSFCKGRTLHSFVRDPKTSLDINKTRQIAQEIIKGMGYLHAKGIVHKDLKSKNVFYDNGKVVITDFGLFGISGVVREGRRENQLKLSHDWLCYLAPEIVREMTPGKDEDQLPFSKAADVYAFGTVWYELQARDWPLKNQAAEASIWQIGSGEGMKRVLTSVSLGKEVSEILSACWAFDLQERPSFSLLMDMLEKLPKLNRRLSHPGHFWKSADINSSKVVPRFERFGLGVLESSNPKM
Outline: as §1

[4] = molecular target: T3, LATS2 (UniProt Q9NRM7)
T3 sequence (whole entry): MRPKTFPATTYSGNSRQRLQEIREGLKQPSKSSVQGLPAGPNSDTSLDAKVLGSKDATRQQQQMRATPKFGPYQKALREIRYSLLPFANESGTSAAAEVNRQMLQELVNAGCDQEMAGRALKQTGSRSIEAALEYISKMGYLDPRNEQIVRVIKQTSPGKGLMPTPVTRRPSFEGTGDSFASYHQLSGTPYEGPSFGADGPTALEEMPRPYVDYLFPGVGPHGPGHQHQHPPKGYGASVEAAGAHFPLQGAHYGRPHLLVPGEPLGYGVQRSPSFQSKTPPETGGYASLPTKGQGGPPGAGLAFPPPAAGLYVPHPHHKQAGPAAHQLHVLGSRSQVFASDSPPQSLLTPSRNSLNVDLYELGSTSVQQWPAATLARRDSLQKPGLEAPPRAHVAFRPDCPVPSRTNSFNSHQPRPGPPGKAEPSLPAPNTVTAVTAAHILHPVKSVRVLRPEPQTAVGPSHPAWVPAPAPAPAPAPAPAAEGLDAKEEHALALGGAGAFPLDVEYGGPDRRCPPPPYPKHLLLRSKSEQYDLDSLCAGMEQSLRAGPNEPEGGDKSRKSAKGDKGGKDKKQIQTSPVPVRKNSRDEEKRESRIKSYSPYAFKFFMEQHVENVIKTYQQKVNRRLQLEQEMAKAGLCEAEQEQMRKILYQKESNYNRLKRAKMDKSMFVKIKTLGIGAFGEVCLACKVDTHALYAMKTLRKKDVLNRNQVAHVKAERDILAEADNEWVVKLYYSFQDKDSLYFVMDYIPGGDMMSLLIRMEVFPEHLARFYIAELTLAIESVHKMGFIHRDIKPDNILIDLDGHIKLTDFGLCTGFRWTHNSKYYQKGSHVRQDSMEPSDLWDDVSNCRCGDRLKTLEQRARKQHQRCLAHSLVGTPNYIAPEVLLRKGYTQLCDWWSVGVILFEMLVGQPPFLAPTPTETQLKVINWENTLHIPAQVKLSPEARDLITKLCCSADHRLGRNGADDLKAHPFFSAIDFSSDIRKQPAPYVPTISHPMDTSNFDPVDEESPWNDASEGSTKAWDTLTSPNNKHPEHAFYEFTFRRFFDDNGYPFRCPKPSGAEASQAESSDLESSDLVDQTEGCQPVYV
Outline: as §1

[5] = molecular target: UniProt Q14004
Chain of UniProt Q14004 (Q14004 whole entry, looked up): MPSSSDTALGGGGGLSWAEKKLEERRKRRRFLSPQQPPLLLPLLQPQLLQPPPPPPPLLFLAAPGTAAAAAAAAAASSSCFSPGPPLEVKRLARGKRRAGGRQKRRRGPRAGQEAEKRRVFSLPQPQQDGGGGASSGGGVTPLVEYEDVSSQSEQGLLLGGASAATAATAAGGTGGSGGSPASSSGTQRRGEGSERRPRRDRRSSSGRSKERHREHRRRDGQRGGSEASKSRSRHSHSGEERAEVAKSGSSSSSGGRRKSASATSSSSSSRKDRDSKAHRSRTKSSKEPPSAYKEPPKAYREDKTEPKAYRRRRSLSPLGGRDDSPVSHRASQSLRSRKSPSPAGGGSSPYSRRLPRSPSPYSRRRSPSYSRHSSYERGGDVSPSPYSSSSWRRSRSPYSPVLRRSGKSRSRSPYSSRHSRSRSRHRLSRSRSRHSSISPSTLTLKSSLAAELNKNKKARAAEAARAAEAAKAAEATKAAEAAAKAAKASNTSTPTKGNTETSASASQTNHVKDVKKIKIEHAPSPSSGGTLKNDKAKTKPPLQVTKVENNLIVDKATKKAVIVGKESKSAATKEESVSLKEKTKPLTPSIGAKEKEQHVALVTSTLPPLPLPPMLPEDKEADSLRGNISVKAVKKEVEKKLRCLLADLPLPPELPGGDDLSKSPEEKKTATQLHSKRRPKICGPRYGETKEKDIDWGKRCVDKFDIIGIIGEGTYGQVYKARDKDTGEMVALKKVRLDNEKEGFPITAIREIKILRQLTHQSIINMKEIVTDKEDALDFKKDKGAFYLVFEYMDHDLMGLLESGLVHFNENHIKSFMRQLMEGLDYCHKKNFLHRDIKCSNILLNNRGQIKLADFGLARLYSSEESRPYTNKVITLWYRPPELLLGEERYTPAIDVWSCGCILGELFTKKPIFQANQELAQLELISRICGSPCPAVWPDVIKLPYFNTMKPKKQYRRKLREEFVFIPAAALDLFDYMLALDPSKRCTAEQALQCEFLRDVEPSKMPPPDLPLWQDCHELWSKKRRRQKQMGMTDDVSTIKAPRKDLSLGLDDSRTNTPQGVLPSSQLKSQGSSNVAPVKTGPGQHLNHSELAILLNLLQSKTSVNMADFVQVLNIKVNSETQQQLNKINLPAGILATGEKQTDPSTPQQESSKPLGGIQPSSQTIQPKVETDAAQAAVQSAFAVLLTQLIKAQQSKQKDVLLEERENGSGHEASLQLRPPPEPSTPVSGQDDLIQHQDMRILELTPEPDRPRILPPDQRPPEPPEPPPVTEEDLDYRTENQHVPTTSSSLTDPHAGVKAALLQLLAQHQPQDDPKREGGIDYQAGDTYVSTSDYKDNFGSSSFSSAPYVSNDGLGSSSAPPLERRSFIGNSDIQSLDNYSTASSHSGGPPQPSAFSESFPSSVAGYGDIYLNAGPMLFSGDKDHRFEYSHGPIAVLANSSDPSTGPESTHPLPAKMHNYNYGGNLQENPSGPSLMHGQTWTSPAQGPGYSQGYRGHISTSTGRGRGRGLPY
Outline: as §1

[6] = molecular target: PIK3R4 (UniProt Q99570); details: cell material: Jurkat cells
Chain of PIK3R4 (Q99570 whole entry): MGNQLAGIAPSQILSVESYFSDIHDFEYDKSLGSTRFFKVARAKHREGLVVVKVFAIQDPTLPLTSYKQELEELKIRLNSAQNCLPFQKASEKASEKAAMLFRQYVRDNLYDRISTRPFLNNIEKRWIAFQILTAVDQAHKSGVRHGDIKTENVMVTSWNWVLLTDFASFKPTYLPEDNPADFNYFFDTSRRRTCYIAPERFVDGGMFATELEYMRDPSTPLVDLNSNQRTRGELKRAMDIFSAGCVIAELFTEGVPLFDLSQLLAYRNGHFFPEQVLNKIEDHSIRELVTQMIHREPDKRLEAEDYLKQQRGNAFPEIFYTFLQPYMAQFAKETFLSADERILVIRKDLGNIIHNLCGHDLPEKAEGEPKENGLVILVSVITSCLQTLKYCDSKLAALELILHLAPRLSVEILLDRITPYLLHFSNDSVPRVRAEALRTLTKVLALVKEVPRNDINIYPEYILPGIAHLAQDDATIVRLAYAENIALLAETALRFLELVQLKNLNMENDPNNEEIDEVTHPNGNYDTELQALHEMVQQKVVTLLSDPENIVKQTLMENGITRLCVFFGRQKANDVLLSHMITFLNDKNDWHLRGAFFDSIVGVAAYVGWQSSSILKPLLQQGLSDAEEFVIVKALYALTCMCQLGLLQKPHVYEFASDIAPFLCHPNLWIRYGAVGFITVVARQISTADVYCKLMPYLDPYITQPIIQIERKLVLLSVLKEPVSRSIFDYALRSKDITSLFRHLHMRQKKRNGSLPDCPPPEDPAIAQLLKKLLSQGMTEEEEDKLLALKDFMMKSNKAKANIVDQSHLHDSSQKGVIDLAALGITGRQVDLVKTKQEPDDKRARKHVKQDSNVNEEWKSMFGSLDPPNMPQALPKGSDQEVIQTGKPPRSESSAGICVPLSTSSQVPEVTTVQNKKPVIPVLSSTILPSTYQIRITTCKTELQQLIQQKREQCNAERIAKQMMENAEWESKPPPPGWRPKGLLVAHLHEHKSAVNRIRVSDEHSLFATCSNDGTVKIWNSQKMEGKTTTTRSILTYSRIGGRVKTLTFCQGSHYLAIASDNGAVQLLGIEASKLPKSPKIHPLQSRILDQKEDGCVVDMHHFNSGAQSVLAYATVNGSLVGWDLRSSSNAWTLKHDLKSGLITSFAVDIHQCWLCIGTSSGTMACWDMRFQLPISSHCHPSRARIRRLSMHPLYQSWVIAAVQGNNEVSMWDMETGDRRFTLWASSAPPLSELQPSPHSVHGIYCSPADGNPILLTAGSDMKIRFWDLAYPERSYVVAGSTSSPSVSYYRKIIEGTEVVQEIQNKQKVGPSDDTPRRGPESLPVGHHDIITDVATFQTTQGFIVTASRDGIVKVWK
Outline: as §1

[7] = molecular target: MAPKAPK3 (UniProt Q16644)
Chain of MAPKAPK3 (Q16644 whole entry, looked up): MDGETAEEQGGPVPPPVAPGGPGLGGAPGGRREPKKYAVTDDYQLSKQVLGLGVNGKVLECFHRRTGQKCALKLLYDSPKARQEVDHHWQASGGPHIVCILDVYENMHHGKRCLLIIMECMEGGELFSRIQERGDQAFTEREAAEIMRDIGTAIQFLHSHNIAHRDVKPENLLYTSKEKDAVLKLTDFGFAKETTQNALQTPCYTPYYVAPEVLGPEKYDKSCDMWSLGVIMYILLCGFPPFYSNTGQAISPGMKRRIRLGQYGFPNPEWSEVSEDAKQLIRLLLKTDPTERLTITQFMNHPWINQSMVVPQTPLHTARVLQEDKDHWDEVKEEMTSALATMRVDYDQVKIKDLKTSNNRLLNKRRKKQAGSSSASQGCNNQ
Outline: as §1

[8] = molecular target: UniProt P23443
Chain of UniProt P23443 (P23443 whole entry, looked up): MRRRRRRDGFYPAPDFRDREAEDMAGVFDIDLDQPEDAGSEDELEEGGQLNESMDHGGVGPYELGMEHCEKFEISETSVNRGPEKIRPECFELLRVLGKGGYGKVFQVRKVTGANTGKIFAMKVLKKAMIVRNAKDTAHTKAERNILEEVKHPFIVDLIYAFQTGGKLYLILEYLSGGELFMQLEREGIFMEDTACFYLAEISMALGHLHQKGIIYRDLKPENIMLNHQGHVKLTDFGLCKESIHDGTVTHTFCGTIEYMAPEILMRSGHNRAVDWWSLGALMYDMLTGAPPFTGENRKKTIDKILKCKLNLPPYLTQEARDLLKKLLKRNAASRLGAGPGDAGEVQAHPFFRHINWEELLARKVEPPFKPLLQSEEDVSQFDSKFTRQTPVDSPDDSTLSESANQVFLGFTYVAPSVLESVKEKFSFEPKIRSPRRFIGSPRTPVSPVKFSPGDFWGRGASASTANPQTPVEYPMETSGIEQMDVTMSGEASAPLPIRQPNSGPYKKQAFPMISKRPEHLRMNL
Outline: as §1

[9] = molecular target: UniProt Q9Y6M4; details: cell material: Lysate mix
Chain of UniProt Q9Y6M4 (Q9Y6M4 whole entry, looked up): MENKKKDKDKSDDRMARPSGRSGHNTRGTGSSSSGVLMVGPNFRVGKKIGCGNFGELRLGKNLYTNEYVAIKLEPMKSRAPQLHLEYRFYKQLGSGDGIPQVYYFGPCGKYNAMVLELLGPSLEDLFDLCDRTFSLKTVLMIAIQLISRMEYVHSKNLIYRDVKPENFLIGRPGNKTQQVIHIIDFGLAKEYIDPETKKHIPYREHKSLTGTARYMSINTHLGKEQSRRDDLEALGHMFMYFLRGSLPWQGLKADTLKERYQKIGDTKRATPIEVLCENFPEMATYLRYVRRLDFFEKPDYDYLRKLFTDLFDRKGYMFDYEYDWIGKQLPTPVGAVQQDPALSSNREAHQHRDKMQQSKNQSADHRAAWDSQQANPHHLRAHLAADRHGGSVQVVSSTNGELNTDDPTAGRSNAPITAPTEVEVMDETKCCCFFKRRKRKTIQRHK
Outline: as §1

Chain of FRK (P42685 whole entry): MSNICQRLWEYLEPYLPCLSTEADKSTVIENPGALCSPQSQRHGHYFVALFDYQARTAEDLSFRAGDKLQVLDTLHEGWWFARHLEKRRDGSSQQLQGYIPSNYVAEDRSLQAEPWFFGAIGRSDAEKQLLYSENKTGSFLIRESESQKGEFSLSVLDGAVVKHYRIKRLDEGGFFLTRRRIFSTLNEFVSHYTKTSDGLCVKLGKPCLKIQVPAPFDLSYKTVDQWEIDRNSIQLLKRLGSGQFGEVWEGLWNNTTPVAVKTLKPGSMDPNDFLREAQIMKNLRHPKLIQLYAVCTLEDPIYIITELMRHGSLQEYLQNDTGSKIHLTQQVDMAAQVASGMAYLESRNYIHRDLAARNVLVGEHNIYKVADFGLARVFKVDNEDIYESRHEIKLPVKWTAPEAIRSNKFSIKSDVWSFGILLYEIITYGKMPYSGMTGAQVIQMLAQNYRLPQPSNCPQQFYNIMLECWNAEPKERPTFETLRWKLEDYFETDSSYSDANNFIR

pIC50 [1]	pIC50 ([2]; cell material: Lysate mix)	pIC50 ([3]; cell material: Lysate mix)	pIC50 ([4]; cell material: Lysate mix)	pIC50 ([5]; cell material: Lysate mix)	pIC50 ([3]; cell material: Jurkat cells)	pIC50 ([3]; cell material: Jurkat lysate)	pIC50 ([7]; cell material: Lysate mix)	pIC50 ([4]; cell material: Jurkat lysate)	pIC50 [9]	Compound	pIC50 ([2]; cell material: Jurkat cells)	pIC50 ([2]; cell material: Jurkat lysate)	pIC50 [6]	pIC50 ([7]; cell material: Jurkat cells)	pIC50 ([7]; cell material: Jurkat lysate)	pIC50 ([4]; cell material: Jurkat cells)	pIC50 ([5]; cell material: Jurkat cells)	pIC50 ([5]; cell material: Jurkat lysate)	pIC50 ([8]; cell material: Jurkat lysate)	pIC50 ([8]; cell material: Jurkat cells)
< 4.52	< 4.52	< 4.52	< 4.52	< 4.52	–	–	–	–	–	Cc1cc(Nc2cc(C(=O)NCCNC(=O)OC3CC/C=C/CCC3)nc(N3CCN(Cc4ccc(S(=O)(=O)F)cc4)CC3)n2)n[nH]1 (stereo not given)	–	–	–	–	–	–	–	–	–	–
–	< 4.52	< 4.52	< 4.52	< 4.52	< 4.52	< 4.52	< 4.52	< 4.52	< 4.52	O=C(NCCNC(=O)c1cc(Nc2cc(C3CC3)[nH]n2)nc(N2CCN(Cc3ccc(S(=O)(=O)F)cc3)CC2)n1)OC1CC/C=C/CCC1 (stereo not given)	< 4.52	< 4.52	< 4.52	6.36	6.28	5.54	6.02	< 4.52	< 4.52	–

The remaining lines, values behind:

Compound	pIC50 [1]	pIC50 ([2]; cell material: Lysate mix)	pIC50 ([3]; cell material: Lysate mix)	pIC50 ([4]; cell material: Lysate mix)	pIC50 ([5]; cell material: Lysate mix)	pIC50 ([3]; cell material: Jurkat cells)	pIC50 ([3]; cell material: Jurkat lysate)	pIC50 ([7]; cell material: Lysate mix)	pIC50 ([4]; cell material: Jurkat lysate)	pIC50 [9]	pIC50 ([2]; cell material: Jurkat cells)	pIC50 ([2]; cell material: Jurkat lysate)	pIC50 [6]	pIC50 ([7]; cell material: Jurkat cells)	pIC50 ([7]; cell material: Jurkat lysate)	pIC50 ([4]; cell material: Jurkat cells)	pIC50 ([5]; cell material: Jurkat cells)	pIC50 ([5]; cell material: Jurkat lysate)	pIC50 ([8]; cell material: Jurkat lysate)	pIC50 ([8]; cell material: Jurkat cells)
C#CCNC(=O)c1cc(Nc2cc(C)[nH]n2)nc(N2CCN(Cc3ccc(S(=O)(=O)F)cc3)CC2)n1	5.78	< 4.52	< 4.52	4.77	< 4.52	–	–	–	–	–	–	–	–	–	–	–	–	–	–	–
C#CCNC(=O)c1cc(Nc2cc(C3CC3)[nH]n2)nc(N2CCN(Cc3ccc(S(=O)(=O)F)cc3)CC2)n1	6.27	–	–	5.84	–	–	–	–	–	< 4.52	5.41	< 4.52	4.69	6.53	6.64	5.82	6.19	< 4.52	< 4.52	5.19
CCNC(=O)c1cc(Nc2cc(C)[nH]n2)nc(N2CCN(Cc3ccc(S(=O)(=O)F)cc3)CC2)n1	6.23	–	< 4.52	–	< 4.52	–	–	5.74	–	< 4.52	–	–	–	–	–	–	–	–	–	–
CCNC(=O)c1cc(Nc2cc(C3CC3)[nH]n2)nc(N2CCN(Cc3ccc(S(=O)(=O)F)cc3)CC2)n1	5.98	< 4.52	–	5.31	–	–	–	–	–	4.89	–	–	–	–	–	–	–	–	–	–
